Experimental data published in US9114111B2, “Methods for sustained treatment of bladder pain and irritative voiding” (priority 2011, dated 2015).
Like-named read-outs stand apart in the source and are kept apart here.

Columns and labels:
[1] = In vitro release of lidocaine from silicone tube devices in water at about 37° C.; type: physicochemical; conditions: silicone tubes about 3 cm, payload about 60 mg
Description: A study was performed to determine the feasibility of delivering drug through the wall of a drug reservoir via diffusion. Devices were formed form silicone tubes having an inner diameter of about 0.060 inches, an outer diameter of 0.076 inches, and a length of about 3 cm. […] Some of the devices included an aperture formed through the tube wall, the aperture having a diameter of 150 μm. […] The devices were tested in vitro in water at about 37° C. […] Another study was performed to investigate the feasibility of delivering drug from a device through both a wall of a drug reservoir and from an aperture in the wall of the drug reservoir. Devices were formed form silicone tubes having a length of about 3 cm. […] The devices were tested in vitro in water at about 37° C.

IC patients = conditions: cited from earlier work

| SMILES | release from silicone tube with and without apertures [1] | mean pain score (IC patients; immediately following treatment, prior to treatment 6.0) | duration of effect (IC patients; single lidocaine instillation) | mean pain score (IC patients; the next day) | mean pain score (IC patients; with a second instillation) |
| --- | --- | --- | --- | --- | --- |
| CCN(CC)CC(=O)Nc1c(C)cccc1C [lidocaine base] | can be released from a silicone tube without any apertures | – | – | – | – |
| CCN(CC)CC(=O)Nc1c(C)cccc1C [lidocaine] | – | 1.8 | approximately 24 hours | 3.7 | 1.2 |
